Source: patent US20150290176A1, “USE OF MTOR INHIBITORS TO TREAT VASCULAR COGNITIVE IMPAIRMENT” (THE BOARD OF REGENTS OF THE UNIVERSITY OF TEXAS SYSTEM, priority 2012, published 2015)
Where two headings read alike, the source gives them in different places.

How the values were obtained:
AD mice = assay: Cerebral blood flow by MRI continuous arterial spin labeling; type: in vivo, mouse; conditions: rapamycin-fed 16 weeks, then L-NAME for 4 additional weeks
Experimental: Rapamycin treatment. Mice were fed chow containing either microencapsulated enteric-coated rapamycin at 2.24 mg/kg or a control diet as described by Harrison et al., 2009. Rapamycin was used at 14 mg per kg food (verified by HPLC). On the assumption that the average mouse weighs 30 gm and consumes 5 gm of food/day, this dose supplied 2.24 mg rapamycin per kg body weight/day (Harrison, et al., 2009). All mice were given ad libitum access to rapamycin or control food and water for the duration of the experiment. Body weights and food intake were measured weekly. […] Littermates (transgenic and non-transgenic mice) were housed together, thus we could not distinguish effects of genotype on food consumption. […]
Animal Preparation for Functional Neuroimaging. […] Respiration rate (90-130 bpm) and rectal temperature (37±0.5° C.) were continuously monitored. Heart rate and blood oxygen saturation level (SaO2) were recorded using a MouseOx system (STARR Life Science Corp., Oakmont, Pa.) and maintained within normal physiological ranges.
Cerebral Blood Flow. Quantitative CBF (with unit of […]) was measured using the MRI based continuous arterial spin labeling (CASL) techniques (Duong, et al., 2000; Muir, et al., 2008) on a horizontal 7T/30 cm magnet and a 40G/cm BGA12S gradient insert (Bruker, Billerica, Mass.). […]

[1] = system: NO production in cortical vessels; assay: In vivo imaging of NO production in cortical vessels with NO-sensitive probe DAF-FM; set-up: species or system mouse; conditions: L-NAME 30 mg/kg intraperitoneally before rapamycin
From the text: (§1) In vivo imaging experiments. Details of experimental procedures were identical to our previously published protocols (Zheng, et al., 2010). Briefly, mice were anesthetized with volatile isoflurane through a nosecone (3% induction, 1.5% maintenance). The depth of anesthesia was monitored by regular checking of whisker movement and the pinch withdrawal reflex of the hind limb and tail. Also, during surgery and imaging, three main vital signs including heart rate, respiratory rate, and oxygen saturation were periodically assessed by use of the MouseOx system (STARR Life Sciences). Body temperature was maintained at 37° C. by use of feedback-controlled heating pad (Gaymar T/Pump). Initially, the scalp was shaved, incised along the midline and retracted to expose the dorsal skull. Then removal of periosteum by forceps and cleaning of skull by a sterile cotton swab were performed. A stainless steel head plate was glutted (VetBond, 3M, St. Paul, Minn.) to dorsal skull and screwed to a custom-made stereotaxic frame. To create a thin-skull cranial window over the somotosensory cortex, skull was initially thinned by high-speed electric drill (Fine Science Tools, Foster City, Calif.) and subsequently thinned to approximate 50 μm by using a surgical blade under a dissecting microscope (Nikon SMZ800). […] The diameter of blood vessels was analyzed by Image J plugin vessel diameter. […]

cortical vessels = assay: In vivo 2-photon imaging of cortical vessel diameter; set-up: species or system mouse
From the text: as §1

[2] = Body weight and food intake during rapamycin feeding; type: in vivo, mouse
Experimental: Rapamycin treatment. Mice were fed chow containing either microencapsulated enteric-coated rapamycin at 2.24 mg/kg or a control diet as described by Harrison et al., 2009. Rapamycin was used at 14 mg per kg food (verified by HPLC). On the assumption that the average mouse weighs 30 gm and consumes 5 gm of food/day, this dose supplied 2.24 mg rapamycin per kg body weight/day (Harrison, et al., 2009). All mice were given ad libitum access to rapamycin or control food and water for the duration of the experiment. Body weights and food intake were measured weekly. […] Littermates (transgenic and non-transgenic mice) were housed together, thus we could not distinguish effects of genotype on food consumption. Even though there were no differences in food consumption, body weights of rapamycin-fed non-transgenic, but not transgenic, females increased moderately during treatment, (6.8% increase for rapamycin-fed vs control-fed non-transgenic females). The higher increase in body weight for non-transgenic animals is not unexpected, since non-transgenic animals of both genders tend to be slightly (1-3 g) heavier than AD transgenic.

[3] = Rapamycin levels in brain regions of AD mice chronically fed rapamycin-supplemented chow; type: in vivo; conditions: PDAPP transgenic (AD mice), mouse, oral, 2.24 mg/kg body weight/day, AD mice chronically fed rapamycin chow (2.24 mg/kg/day)
Experimental: The inventors used magnetic resonance imaging (MRI) arterial spin labeling (ASL) techniques in vivo, as well as other functional imaging, in vivo optical imaging, and behavioral and biochemical tools to determine whether rapamycin treatment affects the progression of established deficits in the transgenic PDAPP mouse model of Alzheimer's Disease (Galvan, et al., 2005; Hsia, et al., 1999; Mucke, et al., 2000) (“AD mice”). AD mice and unaffected littermates were treated with rapamycin after the onset of AD-like impairments at 7 months of age (Galvan, et al., 2005; Hsia, et al., 1999; Mucke, et al., 2000) for a total of 16 weeks. Rapamycin levels in brain regions of AD mice chronically fed with rapamycin ranged from 0.98 to 2.40 pg/mg. Levels in hippocampus were 1.55 pg/mg (see FIG. 5).
Rapamycin treatment. Mice were fed chow containing either microencapsulated enteric-coated rapamycin at 2.24 mg/kg or a control diet as described by Harrison et al., 2009. Rapamycin was used at 14 mg per kg food (verified by HPLC). On the assumption that the average mouse weighs 30 gm and consumes 5 gm of food/day, this dose supplied 2.24 mg rapamycin per kg body weight/day (Harrison, et al., 2009). All mice were given ad libitum access to rapamycin or control food and water for the duration of the experiment. Body weights and food intake were measured weekly. […]

Compound	CBF in rapamycin-fed AD mice injected with L-NAME (AD mice)	Effect of L-NAME pretreatment on rapamycin-induced NO release [1]	Effect of L-NAME pretreatment on rapamycin-induced vasodilation (cortical vessels; L-NAME 30 mg/kg intraperitoneally before rapamycin)	Food consumption ([2]; control- vs rapamycin-fed groups)	Body weight increase, rapamycin-fed vs control-fed ([2]; non-transgenic females, during treatment)	Increase in diameter of small and medium-sized cortical vessels (cortical vessels; rapamycin 10 mg/kg intraperitoneally, 10 min after administration)	concentration at 16 weeks ([3]; hippocampus, read-out: Rapamycin levels in hippocampus)	concentration at 16 weeks ([3]; range over brain regions, read-out: Rapamycin levels in brain regions)
COC(=O)[C@@H](N)CCCNC(=N)N[N+](=O)[O-] [L-NAME, L-NG-Nitroarginine methyl ester]	CBF deficits comparable to control-fed AD mice	abrogated	abrogated					
CO[C@H]1C[C@@H]2CC[C@@H](C)[C@@](O)(O2)C(=O)C(=O)N2CCCC[C@H]2C(=O)O[C@H]([C@H](C)C[C@@H]2CC[C@@H](O)[C@H](OC)C2)CC(=O)[C@H](C)/C=C(\C)[C@@H](O)[C@@H](OC)C(=O)[C@H](C)C[C@H](C)/C=C/C=C/C=C/1C [rapamycin]				comparable	6.8%	23-35%	1.55 ng/g	0.98 to 2.4 ng/g
